# Data reported in patent publication US9834514B2, “Antibiotic sensitivity-restoring and photosensitive agents” (New Mexico Tech Research Foundation, priority 2015, dated 2017).
# Legend:
# [1] = system: MRSA (ATCC No. BAA-44; ATCC No. BAA-1717); assay: Light-activated killing (photodynamic therapy), colony counts; type: cell-based, S. aureus; settings: for Light Toxicity: white light 2 minutes; for log reduction in the concentration of CFUs: MRSA, FIG. 7; for appearance of MRSA cells in SEM image: FIG. 4
# Description: Bacterial media was inoculated with bacteria and incubated overnight. The bacterial cultures were diluted to 5×10^8 CFU/mL using a McFarland latex turbidity standard (0.5). Compound 1 was diluted with sterile DMSO, which was added to the cell suspension in a glass culture tube. The cells were then incubated for 30 minutes at 37° C. on a rotary shaking incubator at 150 rpm. 500 μL of the treated cell suspension was added to a well on a sterile ceramic drop plate. Non-coherent white light from a Lumacare™ LC-122 unit was used to irradiate the samples. The end of the light probe was placed 3 cm above the sample well, perpendicular to the surface of the sample, and light was applied for 2 minutes (15 seconds light, 15 seconds dark). 200 μL of the irradiated sample was transferred to a 96-well plastic microtiter plate, and five ten-fold dilutions were made in the media. 10 μL of each dilution was dripped onto an agar media plate and streaked down the plate by tilting the plate down. The agar plates were incubated at 37° C. overnight, and colony counts were performed to calculate the CFU/mL.
# Dose-dependent effects of treating bacteria with compound 1 and irradiation with white light were assessed by treating 10^8 CFU/mL of cells with compound 1, followed by irradiation with white light for 2 minutes. Compound 1 was added at a specific concentration to 1 mL of a 10^8 CFU/mL suspension of the respective bacterial cells, and the cells were incubated at 37° C. for approximately 45 minutes on a rotary shaker at 150 rpm. 0.5 mL of the cell suspension was removed and placed into the wells of a sterile ceramic drop plate, and then the cells were irradiated with white light from a Lumacare™ LC 122A light source for 2 minutes at a distance of approximately 3 cm. The time and distance of the light application delivered about 85 J/cm^2 of 400-700 nm light to the sample. After being irradiated, ten-fold dilutions were made of each cell sample. The dilutions were drip-streaked onto a tryptic soy agar (TSA) plate and incubated at 37° C. for 18-24 hours. Enumeration of bacteria was determined from the dilution, which produced a drip-streak containing approximately 30-300 colonies. After counting the colonies, the CFU/mL was calculated by applying the respective dilution factor and a factor of 100 to account for the 10 μL of sample taken. Appropriate controls were prepared, including cells with no treatment, cells with only compound 1 added, and cells only treated with light.
# Gram-positive bacteria = assay: Bacterial patterning (chessboard mask) with light and compound 1; type: cell-based
# Description: A chessboard mask was then placed on top of the agar plate. […] The agar plate was then inoculated with bacteria and incubated overnight at 37° C.
# S. aureus ATCC 29213 = assay: Resensitization to antibiotics (log reduction, TABLE 29); type: cell-based
# MRSA = assay: Checkerboard assay (FICI); type: cell-based, S. aureus
# Description: Another method for determining synergy is a checkerboard assay. A checkerboard assay is performed whereby one of the test compounds is serially diluted horizontally across a plate, while the other test compound is serially diluted vertically down the plate. The perpendicular serial dilutions result in combinations of the compounds that range in concentrations from the highest to the lowest of each compound added. In the present study, the checkerboard assay method was adjusted by serially diluting one of the test compounds horizontally and adding the second drug to each well at a concentration of ¼ MIC. The 24-well microtiter plate was then incubated at 37° C. for 18-24 hours on a rotary shaker incubator at 150 rpm. After incubation, MTT reagent was added to each well at a 10% sample volume. Synergy was determined on the lowest concentration of the combined drugs, which produced no purple coloring. Calculation of synergy was determined by the Fractional Inhibitory Concentration Index (FICI): FICI=([Drug 1]Synergy/[Drug1]MIC)+([Drug 2]Synergy/[Drug 2]MIC). FICI≦0.5 is an indication of synergy.
# TABLE 17 details the obtained FICI values for compound 1 in combination with varying antibiotics against MRSA, A. baumannii, and E. coli.
# [2] = biological target: T1, NorA efflux pumps in MRSA (Staphylococcus aureus, UniProt P0A0J7); assay: Fluorescent binding assay of compound 1 with MRSA and S. aureus; settings: 1 μM and 10 μM; MRSA compared to S. aureus; FIG. 1
# T1 construct: endogenous in cells
# Description: The error bars represent data from three independent measurements.
# S. aureus and MRSA cells (about 10^8 CFU/mL) were treated with two doses of compound 1 (1 μM and 10 μM), and the cells were incubated at 37° C. for 15 minutes on a rotary shaker set at 150 rpm. After the incubation, the cells were transferred to a 96-well fluorescent plate reader and read every minute for 30 minutes at excitation wavelengths of 334 nm, 380 nm, and 407 nm, and an emission wavelength of 508 nm. The controls were: 1×PBS, compound 1 (1 μM and 10 μM) in 1×PBS, S. aureus in 1×PBS, and MRSA in 1×PBS.
# VRE (ATCC 51299) = assay: Synergy with antibiotics against VRE; type: cell-based, Enterococcus faecalis
# Description: For these experiments, overnight cultures of VRE were diluted to about 5×10^5 CFU/mL in TSB. Then, 1 mL of the diluted broth suspension was added to a borosilicate glass culture tube. After appropriate volumes of the compounds were added to the broth suspensions, the samples were mixed using a vortex mixer, and an appropriate volume of an antibiotic was added to the samples. The samples were mixed using a vortex mixer and incubated for 18 hours at 37° C. on a rotary shaking incubator. After 18 hours, the test cultures were diluted ten-fold, and 10 μL of each dilution was drip-streaked onto a TSA plate and incubated for 18 hours at 37° C. Colony counts were then performed and the CFU/mL values were calculated.
# TABLE 24 details the MICs of common antibiotics against VRE. In a 12×75 mm borosilicate glass culture tube, 1 mL of cell suspension was added. Then, compound 7 was added to the cells, and the samples were mixed using a vortex mixer. […] The samples were incubated overnight at 37° C. on a rotary shaking incubator at 100 rpm. Inhibition observed visually compared to each individual treatment was considered synergistic.
# T1 sequence (P0A0J7 whole entry): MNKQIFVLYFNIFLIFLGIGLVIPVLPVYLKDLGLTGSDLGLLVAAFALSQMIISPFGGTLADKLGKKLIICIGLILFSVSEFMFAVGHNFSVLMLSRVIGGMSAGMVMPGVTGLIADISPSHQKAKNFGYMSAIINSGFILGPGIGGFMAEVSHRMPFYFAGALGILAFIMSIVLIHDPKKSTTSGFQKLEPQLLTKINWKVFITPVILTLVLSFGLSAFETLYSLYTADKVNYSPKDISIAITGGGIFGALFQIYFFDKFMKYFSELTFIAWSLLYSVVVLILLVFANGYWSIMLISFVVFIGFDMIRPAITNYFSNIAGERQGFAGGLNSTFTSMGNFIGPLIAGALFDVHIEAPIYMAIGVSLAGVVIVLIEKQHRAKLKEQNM
smiles,measurement,setting,value
Clc1ccc(/C=C/c2[nH]c3ccccc3c2/C=C/c2ccc(Cl)cc2)cc1 [Compound 1],Dark Toxicity,"[1]; MRSA ATCC BAA-44, 0.1 μM, no light",2.85 × 10^8 ± 8.05 × 10^7 CFU/mL
same,Light Toxicity,"[1]; MRSA ATCC BAA-44, 0.1 μM",2.00 × 10^3 ± 4.00 × 10^2 CFU/mL
same,Dark Toxicity,"[1]; MRSA ATCC BAA-44, 0.5 μM, no light",2.93 × 10^8 ± 2.14 × 10^7 CFU/mL
same,Light Toxicity,"[1]; MRSA ATCC BAA-44, 0.5 μM",3.33 × 10^1 ± 5.77 × 10^1 CFU/mL
same,Dark Toxicity,"[1]; MRSA ATCC BAA-44, 1.0 μM, no light",1.05 × 10^8 ± 9.07 × 10^6 CFU/mL
same,Light Toxicity,"[1]; MRSA ATCC BAA-44, 1.0 μM",None detected (<100 CFU/mL)
same,Dark Toxicity,"[1]; MRSA ATCC BAA-44, 5.1 μM, no light",4.34 × 10^5 ± 5.04 × 10^5 CFU/mL
same,Light Toxicity,"[1]; MRSA ATCC BAA-44, 5.1 μM",None detected (<100 CFU/mL)
same,Dark Toxicity,"[1]; MRSA ATCC BAA-1717, 0.1 μM, no light",5.10 × 10^7 ± 5.29 × 10^6 CFU/mL
same,Light Toxicity,"[1]; MRSA ATCC BAA-1717, 0.1 μM",4.43 × 10^3 ± 1.33 × 10^3 CFU/mL
same,Dark Toxicity,"[1]; MRSA ATCC BAA-1717, 0.5 μM, no light",4.03 × 10^6 ± 1.5 × 10^6 CFU/mL
same,Light Toxicity,"[1]; MRSA ATCC BAA-1717, 0.5 μM",4.0 × 10^2 ± 3.61 × 10^2 CFU/mL
same,Dark Toxicity,"[1]; MRSA ATCC BAA-1717, 1.0 μM, no light",1.06 × 10^6 ± 8.39 × 10^4 CFU/mL
same,Light Toxicity,"[1]; MRSA ATCC BAA-1717, 1.0 μM",None detected (<100 CFU/mL)
same,Dark Toxicity,"[1]; MRSA ATCC BAA-1717, 5.1 μM, no light",7.53 × 10^5 ± 1.12 × 10^5 CFU/mL
same,Light Toxicity,"[1]; MRSA ATCC BAA-1717, 5.1 μM",None detected (<100 CFU/mL)
same,log reduction in the concentration of CFUs,[1]; 1 μM,1 log
same,log reduction in the concentration of CFUs,[1]; 5 μM,3 log
same,PDT,[1]; TABLE 6,<1-log reduction
same,viable MRSA cells after photodynamic therapy,"[1]; from 100,000,000 viable MRSA cells, 2 minutes of white light irradiation",0
same,MIC,Gram-positive bacteria,400 µM
same,bacterial growth on irradiated agar plate,"Gram-positive bacteria; agar with 20 μM compound 1, white light through chessboard mask, FIG. 5",inhibition of bacterial growth in the illuminated parts of the agar plate
same,Log Reduction,"S. aureus ATCC 29213; compound 1 μM, Light (2 min)",6
same,Log Reduction,"S. aureus ATCC 29213; compound 5 μM, Norfloxacin (0.5 μg/mL)",6
same,Log Reduction,"S. aureus ATCC 29213; compound 5 μM, Tetracycline (0.1 μg/mL)",5
same,FIC Index,MRSA; with Amoxicillin,0.3
same,FIC Index,MRSA; with Ampicillin,0.13
same,FIC Index,MRSA; with Dicloxicillin,0.04
same,FIC Index,MRSA; with Norfloxacin,0.3
same,FIC Index,MRSA; with Tetracycline,0.4
same,binding of compound 1 by cells (fluorescence),[2],MRSA was able to bind more of compound 1
Brc1ccc(/N=N/c2c[nH]c3ccccc23)cc1 [Compound 8],killing of VRE in conjunction with antibiotics,"VRE (ATCC 51299); 7.5 μM of compound 8 with vancomycin, tetracycline, or norfloxacin, FIG. 43",more effective at killing VRE
Clc1ccc(/N=N/c2c[nH]c3ccccc23)cc1 [Compound 9],appearance of MRSA cells in SEM image,"[1]; compound 9 alone, no light",undamaged
same,appearance of MRSA cells in SEM image,[1]; compound 9 at 25 uM and light (LumaCare),appear to have burst from the inside
same,killing of VRE in conjunction with antibiotics,"VRE (ATCC 51299); 75 μM of compound 9 with tetracycline or norfloxacin, FIG. 44",more effective at killing VRE
